From US7985765B2, “Therapeutic substituted pyrroles” (Allergan, Inc., priority 2008, dated 2011)

What was measured:
EP2 [1] = biological target: T1, EP2 (Homo sapiens, UniProt P43116); test: EP2 cAMP assay; format: cell-based
Excerpt: (§1) US 2007/0129552, incorporated by reference herein, describes the methods used to obtain the in vitro data in the table below.

hDP = biological target: T2, hDP (Homo sapiens, UniProt Q13258); test: Other receptors functional assay, hDP; format: cell-based
T2 sequence (Q13258 1-359): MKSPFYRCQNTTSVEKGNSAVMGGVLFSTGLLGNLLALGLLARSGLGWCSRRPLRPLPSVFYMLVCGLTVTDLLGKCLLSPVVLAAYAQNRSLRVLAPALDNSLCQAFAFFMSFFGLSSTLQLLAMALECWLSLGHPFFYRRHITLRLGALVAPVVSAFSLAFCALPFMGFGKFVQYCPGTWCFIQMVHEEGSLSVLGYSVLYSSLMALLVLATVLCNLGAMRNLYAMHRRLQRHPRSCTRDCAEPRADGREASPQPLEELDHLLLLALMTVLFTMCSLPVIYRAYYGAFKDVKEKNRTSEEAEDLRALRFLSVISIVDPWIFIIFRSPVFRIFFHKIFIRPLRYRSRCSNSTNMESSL
Excerpt: as §1

EP2 [2] = biological target: T1, EP2; test: EP2 binding (Ki)
Excerpt: as §1

EP2 [3] = biological target: T1, EP2; test: EP2 flipr functional assay; format: cell-based
Excerpt: as §1

EP4 = EP4 (Homo sapiens, UniProt P35408); test: EP4 binding (Ki)
Excerpt: as §1

T1 sequence (P43116 whole entry): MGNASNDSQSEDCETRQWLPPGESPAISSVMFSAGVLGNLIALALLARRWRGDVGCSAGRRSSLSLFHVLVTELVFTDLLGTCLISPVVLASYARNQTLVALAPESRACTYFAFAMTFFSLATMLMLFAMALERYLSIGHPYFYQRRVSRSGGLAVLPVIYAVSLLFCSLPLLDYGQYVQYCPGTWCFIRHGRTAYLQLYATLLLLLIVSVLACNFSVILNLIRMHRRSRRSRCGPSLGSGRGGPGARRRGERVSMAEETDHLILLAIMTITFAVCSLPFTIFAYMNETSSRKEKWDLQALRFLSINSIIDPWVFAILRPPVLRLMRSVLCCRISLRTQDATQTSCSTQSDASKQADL
EP4, sequence (P35408 whole entry): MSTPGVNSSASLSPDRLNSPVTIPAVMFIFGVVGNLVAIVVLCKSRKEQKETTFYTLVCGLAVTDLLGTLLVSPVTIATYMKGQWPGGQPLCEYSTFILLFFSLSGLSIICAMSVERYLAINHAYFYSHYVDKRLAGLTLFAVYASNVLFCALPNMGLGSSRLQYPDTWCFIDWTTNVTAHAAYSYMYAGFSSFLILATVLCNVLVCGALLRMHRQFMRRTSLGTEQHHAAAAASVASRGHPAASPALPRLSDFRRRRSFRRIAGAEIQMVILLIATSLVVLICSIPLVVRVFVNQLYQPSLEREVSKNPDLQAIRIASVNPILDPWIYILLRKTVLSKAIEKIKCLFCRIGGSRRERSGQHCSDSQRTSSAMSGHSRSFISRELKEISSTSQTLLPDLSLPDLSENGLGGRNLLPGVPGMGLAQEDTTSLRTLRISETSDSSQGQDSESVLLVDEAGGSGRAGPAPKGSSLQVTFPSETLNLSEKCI

In the case of CCCCCCc1ccc(-n2cccc2CCCc2ccc(C(=O)O)s2)cc1 [Example 1, 5-(3-(1-(4-hexylphenyl)-1H-pyrrol-2-yl)propyl)thiophene-2-carboxylic acid], the EC50 (EP2 [1]) is reported as 0.0007 µM, the EC50 (hDP) is reported as 2190 nM and the Ki (EP2 [2]) is reported as 0.046 µM. The EC50 (EP2 [3]) was 2.82 µM and the Ki (EP4) was 3.98 µM.
